{"source": "patent US12251374B2", "about": "“Fampridine TTS” (LTS Lohmann Therapie-Systeme AG, priority 2017, dated 2025)", "key": {"[1]": {"assay": "Saturation concentration Cs of fampridine in polymer matrices (\"sandwich\" method by Liu)", "assay_type": "physicochemical", "conditions": "for Cs of fampridine: 7 days at room temperature", "protocol": "The saturation concentration Cs of […] determined in various polymer matrices by the method described by Liu. (Liu, P., Gargiulo, P., Wong, J., and Novartis (1997). A Novel Method for Measuring Solubility of a Drug in an Adhesive, Pharmaceutical Research 14, page 317). In this method, known by specialists as the “sandwich” method, the saturation concentration is determined as follows: A laminate is constructed, having the following layer sequence: protective film-donor layer with active ingredient (dissolved and undissolved)-active ingredient-permeable membrane-acceptor layer without active ingredient-protective film. The two protective films are made of identical material; the matrix material of the donor and of the acceptor layer is likewise identical. The donor layer is produced by dissolving the active ingredient in a solution of the polymer in organic solvent. The concentration of the active ingredient must be selected to be high enough that an undissolved residue can be identified in the polymer matrix so that the saturation concentration Cs in the donor layer is reliably exceeded. This solution is applied to the protective film, and the process solvent is evaporated. The adhesive surface of the donor layer is then covered with the membrane. A dialysis tube made of regenerated cellulose (ZelluTrans®, from Roth, 46 mm flat width) that has been cut to size in the longitudinal direction is used as membrane. The acceptor layer is produced without active ingredient, similarly to the donor layer, and the membrane is applied to the other side. The laminates thus produced are then stored for 7 days at room temperature, during which time the active ingredient diffuses through the membrane into the acceptor layer. The active ingredient concentration in the […] is then determined. To this end, aliquots of approximately 1 cm^2 are punched out using a punching tool of standardised area. The membrane is then removed, the punched blanks without membrane are weighed, and their weight is recorded (m1). The punched blanks are then placed in organic solvent so as to remove the matrices. The backing layers are removed, washed, and dried, and their weight (m2) is determined. […] The concentration of […] solution is then calculated using an HPLC method, and its concentration in the […] is calculated. The saturation concentrations of […] different polymer matrices determined on the basis of this test approach are summarised in Table 1: […]"}, "[2]": {"assay": "Solubility of fampridine base in organic solvents", "assay_type": "physicochemical", "protocol": "Since toluene polysiloxane solution is not commercially obtainable, BIO PSA 4201 from Dow Chemicals (polysiloxane in n-heptane) was used as starting material. The solvent was evaporated and the rubber-like polymer residue was dissolved with so much toluene that a solution with approximately 75% solids was obtained."}}}
{"smiles": "Nc1ccncc1", "note": "[fampridine, 4-aminopyridine]", "values": [{"measurement": "saturation concentration Cs relative to neutral polymers", "setting": "[1]; in acidic polymers vs neutral polymers", "value": "approximately 3 times higher"}, {"measurement": "Cs of fampridine", "setting": "[1]; in acrylate copolymer of 2-ethylhexylacrylate, butyl acrylate, vinyl acetate, acrylic acid, ethyl acetate", "value": 7.4, "unit": "%"}, {"measurement": "Cs of fampridine", "setting": "[1]; in acrylate copolymer of 2-ethylhexylacrylate, vinyl acetate and 2-hydroxyethyl acrylate, ethyl acetate", "value": 3.3, "unit": "%"}, {"measurement": "saturation concentration Cs of fampridine", "setting": "[1]; in neutral polymers (summary of Table 1)", "value": "approximately 3%"}, {"measurement": "Cs of fampridine", "setting": "[1]; in polyisobutylene, polymer dissolved in toluene", "value": 2.2, "unit": "%"}, {"measurement": "Cs of fampridine (in words)", "setting": "[1]; in polysiloxane", "value": "especially low"}, {"measurement": "Cs of fampridine", "setting": "[1]; in polysiloxane, ethyl acetate", "value": 0.3, "unit": "%"}, {"measurement": "Cs of fampridine", "setting": "[1]; in styrene-isoprene-styrene block copolymer, polymer dissolved in toluene", "value": 2.7, "unit": "%"}, {"measurement": "Solubility", "setting": "[2]; in aromatic hydrocarbons", "value": "sufficiently soluble"}, {"measurement": "Solubility", "setting": "[2]; in n-heptane", "value": "not"}]}
